Measured values taken from ChEMBL document CHEMBL1157148, “Synthesis of eudistomin D analogues and its effects on adenosine receptors” (Bioorg Med Chem, 2008).

Columns and labels:
[1] = molecular target: T1, Adenosine receptor A3 (Homo sapiens, UniProt P0DMS8); assay: Displacement of [3H]NECA from human recombinant adenosine A3 receptor expressed in HEK293T cells; format: cell-based, HEK-293T
T1 sequence (P0DMS8 whole entry): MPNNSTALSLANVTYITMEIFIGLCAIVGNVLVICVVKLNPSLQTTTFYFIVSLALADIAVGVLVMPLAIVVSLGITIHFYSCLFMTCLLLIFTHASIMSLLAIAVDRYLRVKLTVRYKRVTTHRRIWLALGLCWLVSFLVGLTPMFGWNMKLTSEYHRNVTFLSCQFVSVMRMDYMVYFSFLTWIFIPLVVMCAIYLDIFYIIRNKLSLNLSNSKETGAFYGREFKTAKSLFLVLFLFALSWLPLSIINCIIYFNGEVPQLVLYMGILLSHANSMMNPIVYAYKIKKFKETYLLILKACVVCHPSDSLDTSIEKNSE

[2] = molecular target: Adenosine receptor A2a (Homo sapiens, UniProt P29274); assay: biochemical
Sequence of Adenosine receptor A2a (P29274 whole entry): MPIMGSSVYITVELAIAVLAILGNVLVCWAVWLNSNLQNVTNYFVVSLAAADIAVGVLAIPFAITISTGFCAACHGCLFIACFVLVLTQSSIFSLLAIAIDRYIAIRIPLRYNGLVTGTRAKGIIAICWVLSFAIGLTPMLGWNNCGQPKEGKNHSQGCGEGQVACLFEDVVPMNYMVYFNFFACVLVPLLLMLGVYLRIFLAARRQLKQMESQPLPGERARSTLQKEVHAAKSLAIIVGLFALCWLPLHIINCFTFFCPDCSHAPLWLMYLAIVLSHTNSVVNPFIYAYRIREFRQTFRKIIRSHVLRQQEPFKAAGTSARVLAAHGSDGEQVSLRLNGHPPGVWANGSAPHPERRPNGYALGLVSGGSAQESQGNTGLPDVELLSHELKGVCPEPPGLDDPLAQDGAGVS
Description: Displacement of [3H]CGS21680 from human recombinant adenosine A2A receptor expressed in HEK293T cells

[3] = molecular target: T2, Adenosine receptor A1 (Homo sapiens, UniProt P30542); assay: Displacement of [3H]DPCPX from human recombinant adenosine A1 receptor expressed in HEK293T cells; format: cell-based, HEK-293T
T2 sequence (P30542 whole entry): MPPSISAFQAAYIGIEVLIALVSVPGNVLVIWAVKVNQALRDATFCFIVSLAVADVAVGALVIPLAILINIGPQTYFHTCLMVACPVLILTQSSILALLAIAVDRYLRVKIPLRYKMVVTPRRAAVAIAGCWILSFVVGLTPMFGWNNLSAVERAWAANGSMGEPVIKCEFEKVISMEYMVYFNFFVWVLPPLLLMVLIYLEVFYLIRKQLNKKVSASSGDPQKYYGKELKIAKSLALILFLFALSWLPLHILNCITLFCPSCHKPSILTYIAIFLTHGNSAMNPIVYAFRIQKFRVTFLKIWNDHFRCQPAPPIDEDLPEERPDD

SMILES | Ki [1] [µM] | Ki [2] [µM] | Ki [3] [µM]
Cc1cc2[nH]c3cnccc3c2c(C)c1O | 17.7 | > 100 | > 100
Cc1cc2[nH]c3cccnc3c2c(C)c1O | 4.43 | 24.9 | > 100
Cc1cc2c(c(C)c1O)c1cc[n+](C)cc1n2C | > 100 | > 100 | > 100
Cc1cc2c(c(C)c1O)c1ncccc1n2C | 13.3 | 44.1 | > 100
Cc1cc2c(c(C)c1O)c1ccncc1n2C | 43.4 | 80.6 | > 100
Cc1cc2[nH]c3c[n+](C)ccc3c2c(C)c1O | 29.7 | > 100 | > 100
